Reference: ChEMBL document CHEMBL3988442, “University of Dundee, Small-Polar-MMV Screening Library” (2021)

test system: Schistosoma mansoni; assay: High throughput screening of compounds against Schistosoma mansoni motility; assay type: functional; design: dose or concentration left out as unconfirmed

| Compound | Percent Effect |
| --- | --- |
| Cc1cccnc1NC(=O)CSc1ccc2c(c1)OCCO2 | -40.06% |
| CCCc1cc(=O)[nH]c2nnc(SCC(=O)NCc3ccc(C)cc3)n12 | -78.33% |
| Cc1ccc(N2CCN(C(=O)COc3ccccc3)CC2)nn1 | -51.88% |
| COc1ccc(F)cc1S(=O)(=O)NCC(c1cccn1C)N(C)C (stereo unspecified) | -13.44% |
| CSCC(C)(O)CNC(=O)c1cc(Br)ccc1Cl (stereo unspecified) | -27.72% |
| CS(=O)(=O)N1CCc2nc(NC(=O)Nc3c(F)cccc3F)sc2C1 | -37.65% |
| O=C1CCSCC(C(=O)N2CCCC2)N1 (stereo unspecified) | -27.13% |
| O=C1CCSCC(C(=O)N2CCOCC2)N1 (stereo unspecified) | -55.74% |
| O=C(NCCn1ccc(-c2ccccn2)n1)c1ccncc1 | -46.65% |
| NC(=O)CN1CCC(NC(=O)c2ccn(-c3cccc(F)c3)n2)CC1 | 5.204% |
| NC(=O)CN1CCCN(C(=O)c2ccn(-c3cccc(F)c3)n2)CC1 | -9.604% |
| NC(=O)CN1CCCN(C(=O)c2ccn(-c3ccccc3)n2)CC1 | -17.53% |
| OC1CCN(Cc2cc3c(cc2Br)OCCO3)CC1 | 8.478% |
| COc1cc(C)nc(N2CCN(Cc3nccn3C)CC2)n1 | -41.68% |
| CCNS(=O)(=O)c1ccc(C)c(C(=O)N(C)Cc2ccco2)c1 | -32.86% |
| CCc1nnc2n1CCN(Cc1csc(-c3ccsc3)n1)C2 | -55.89% |
| CN(C)CCN(Cc1cccc(C(F)(F)F)c1)C(=O)c1cc[nH]n1 | 19.83% |
| Cc1nc(C2CCCN(C(=O)c3sccc3C3CC3)C2)no1 (stereo unspecified) | -33.52% |
| Cc1occc1C(=O)Nc1ccnc(OC2CCOC2)c1 (stereo unspecified) | -74.39% |
| Cc1n[nH]c(C2CN(CC(=O)NCCc3ccsc3)CCO2)n1 (stereo unspecified) | -117.4% |
| CC(C)NC(=O)NCCCc1cc(N)n(-c2ccccc2)n1 | -56.45% |

| Compound | Percent Effect |
| --- | --- |
| COc1ccc(NC(=O)N2CCN(c3ncccn3)CC2)cn1 | -75.2% |
| COc1ccc(NC(=O)NC(C)(C)c2noc(C)n2)cc1 | -52.77% |
| CC(C)CNC(=O)NC(=O)CNc1ccccc1SCC(C)C#N (stereo unspecified) | -9.977% |
| CC(C)NC(=O)N1CCC(n2ccc(C(F)(F)F)n2)CC1 | -11.19% |
| CC(OCC(F)(F)F)C(=O)N1CCCCC1 (stereo unspecified) | -17.04% |
| CN(CCC(F)(F)F)C(=O)[C@H]1CSCN1C(=O)OC(C)(C)C | -27.39% |
| CSC(C)C(=O)NCCCc1cc(N)n(-c2ccccc2)n1 (stereo unspecified) | -59.95% |
| CCc1noc(C(C)N(C)CC(=O)Nc2ccc(C)cc2)n1 (stereo unspecified) | -42.61% |
| CCc1nc(CN2CCCC(N(C)Cc3cnn(C)c3)C2)no1 (stereo unspecified) | -19.11% |
| O=C(CN1CCCC1Cn1cncn1)Nc1cccnc1 (stereo unspecified) | -24.16% |
| COCCN1C(=O)CC(N2CCN(c3ccc(OC)cc3)CC2)C1=O (stereo unspecified) | -42.76% |
| Cc1nn(C)c(N2CCOCC2)c1CNC(C)c1cccnc1 (stereo unspecified) | -13.95% |
| Cc1cc(C)n(Cc2ccc(C(=O)NCCN3CCOCC3)cc2)n1 | -9.196% |
| COc1ccc(CNC(=O)NC2CCC(O)CC2)c(C(F)(F)F)c1 (stereo unspecified) | -1.236% |
| O=C(CCc1cscn1)NS(=O)(=O)c1ccc2c(c1)CCC2 | 28.79% |
| c1ccc(C2CCCN2Cc2nnnn2C2CC2)cc1 (stereo unspecified) | -33.61% |
| CCCc1n[nH]c(C2CN(C(=O)CCCn3cccn3)CCO2)n1 (stereo unspecified) | -21.33% |
| CCCc1n[nH]c(C2CN(CCn3cccn3)CCO2)n1 (stereo unspecified) | 4.257% |
| CCC(CC)c1cc(C(=O)N2CCCC(n3cncn3)C2)on1 (stereo unspecified) | 1.073% |
| Cc1ccc(C(=O)N2CCCC2c2nnc3n2CCCCC3)o1 (stereo unspecified) | -40.92% |
| CC(C)c1nc(CN(C)C2CCN(Cc3nc(C4CC4)no3)C2)no1 (stereo unspecified) | -10.87% |

| Compound | Percent Effect |
| --- | --- |
| Cc1nn(C)c(C)c1NC(=O)CN1CCCC1c1noc(C2CC2)n1 (stereo unspecified) | -50.94% |
| COc1ncccc1C(=O)NCC1Cc2ccccc2O1 (stereo unspecified) | -86.67% |
| O=C(Nc1nccs1)N1CCCC(N2CCNC2=O)C1 (stereo unspecified) | -22.52% |
| O=C(NCCCn1nc2ccccn2c1=O)NC1CCC(O)CC1 (stereo unspecified) | -74.25% |
| CC(C)(C)NC(=O)C1CSCN1S(=O)(=O)c1cccc(F)c1 (stereo unspecified) | -27.85% |
| O=C(CCc1nccs1)N1CCC(N2CCNC2=O)CC1 | -51.15% |
| COc1ccc(NC(C)C(=O)NCCc2cccs2)cc1F (stereo unspecified) | -15.23% |
| Cc1cn(-c2ccccc2)nc1NS(=O)(=O)c1cc(C(=O)O)cs1 | -15.39% |
| Cc1cn(-c2ccccc2)nc1NS(=O)(=O)c1cccc(C(=O)O)c1 | -30.44% |
| Cc1cc(N2CCC(N(C)C(=O)Nc3ccccc3)CC2)nc(C)n1 | -25.09% |
| Cc1cnn(CC2CN(CCc3ccncc3)CCO2)c1 (stereo unspecified) | -83.94% |
| CC(C)S(=O)(=O)NCC1CCCN(C(=O)c2ccc3c(c2)OCCO3)C1 (stereo unspecified) | -47.11% |
| CC1CN(C)c2ccccc2CN1C(=O)c1ccncc1 (stereo unspecified) | -35.26% |
| Cn1nnc2cc(C(=O)N3CCCC3Cc3ccccc3)ccc21 (stereo unspecified) | -37.55% |
| Cc1n[nH]c(C)c1C1CCCN1C(=O)CNC(=O)C(C)(C)C (stereo unspecified) | -23.3% |
| CCN1CC(C(=O)NCc2ccnc(-n3ccnc3C)c2)CC1=O (stereo unspecified) | -29.1% |
| CCn1nc(CC(C)C)cc1C(=O)NCCCOC | -69.66% |
| O=C(c1cccnc1)N1C[C@@H]2CC[C@H](C1)N(Cc1cccc(Cl)c1F)C2 | 6.232% |
| Cc1ccc(F)c(OC2(C(=O)O)CCN(C(=O)N3CCCC3)CC2)c1 | -4.164% |
| O=C(c1ccccn1)N1CCCC(c2nccn2CC2CCC2)C1 (stereo unspecified) | -9.087% |
| COCC(=O)N1Cc2cnc(Cc3ccc(OC)cc3)nc2C1 | -28.71% |

| Compound | Percent Effect |
| --- | --- |
| CN(C)C(=O)c1ccc2c(c1)N(C)C(CC(=O)NCc1ccno1)CO2 (stereo unspecified) | 0.8383% |
| Cc1c[nH]c(CN(C)c2nc(C3CCCC3)nc3c2cnn3C)n1 | -22.17% |
| CCn1nc(C(C)C)cc1C(=O)NCCCOC | -51.54% |
| COc1nc2c(cc1C(=O)N1C[C@H](N)C[C@H]1C(=O)NC(C)C)CCC2 | 37.99% |
| O=C(c1ccccn1)N1CCCC(c2nccn2Cc2ccncc2)C1 (stereo unspecified) | -73.06% |
| COC(=O)c1ccc2ccn(CC3CCNC3)c(=O)c2c1 (stereo unspecified) | -40.15% |
| CCC(=O)N1CCc2[nH]cnc2C12CCN(C(=O)CCS(C)(=O)=O)CC2 | -12.74% |
| OCCC1CN(C2CCC2)CCN1C1CCCC1 (stereo unspecified) | -52.06% |
| CC(Cn1cncn1)NCc1nncn1C1CCCCC1 (stereo unspecified) | 4.936% |
| CCN(CCn1cccn1)Cc1nc(-c2cccs2)oc1C | -16.9% |
| CC1CCN(Cc2cnc(S(=O)(=O)CC3CC3)n2CC2CCCO2)CC1 (stereo unspecified) | -34.33% |
| COCCCC1(CO)CCCN(CCS(C)(=O)=O)C1 (stereo unspecified) | -38.37% |
| CN1CCC(c2nnc(CN3CCC(O)CC3)n2C)CC1 | -3.365% |
| CNC(=O)c1ccc(OC2CCN(S(C)(=O)=O)CC2)c(Cl)c1 | 40.62% |
| COCCCC1CCCN(C(=O)CCc2cc(O)no2)C1 (stereo unspecified) | 4.573% |
| CN(C)C(=O)N1CCn2nc(CNC(=O)CCC(F)(F)F)cc2C1 | 2% |
| CC(C)(C)c1cc(CN2CC[C@@H](NC(=O)c3cccnc3)[C@H](O)C2)n[nH]1 | -5.341% |
| COC(=O)CN1CC(c2nc(Cc3ccccc3)no2)C1.O=C(O)C(=O)O | -0.4449% |
